Source: patent US20240226042A9, “A PROPYL PROPANE THI[…] FOR USE AS ANTITUMORAL” (DMC RESEARCH CENTER, SL, priority 2021, published 2024)

Assays:
[1] = tested on: HT-29 (human colorectal carcinoma line); conditions: HT-29 cells, 72 hours induction, SRB; means±SEM of six independent determinations
Experimental: (§1) Adherent cells (MCF-7, A-549, T-84, HT-29 and Panc-1), were detached from the surface of the culture flasks, using 3-4 ml of trypsin 1×, and left to act for 5-10 minutes in an incubator at 37° C. with 5% CO2. Once the cells were detached, the trypsinization was stopped, adding to the medium flask the same amount of complete culture as trypsin used to detach cells. After resuspending the mixture of trypsin and detached cells several times, the content of the culture flask was transferred to a sterile tube to centrifugation it for 5 minutes at 1500-1600 rpm.
(§2) Adherent cells were incubated for 24 hours to get cells attached to the surface of the flask. Then, the culture medium was replaced for a new medium, to which increasing concentrations of PTSO had been added, and the induction was conducted for 72 hours.

[2] = tested on: MCF-7 (human breast adenocarcinoma line)
Experimental: as §1, §2

[3] = tested on: Panc-1 (human pancreatic carcinoma line); conditions: Panc-1 cells, 72 hours induction, SRB; means±SEM of six independent determinations
Experimental: as §1, §2

[4] = tested on: A-549 (human lung adenocarcinoma line); conditions: A-549 cells, 72 hours induction, SRB; means±SEM of six independent determinations
Description: (§3) A-549 (Reference CCL-185 of the American Type Culture Collection): It is a tumor line of basal alveolar epithelium that comes from a pulmonary adenocarcinoma removed from a patient. These cells are squamous and can synthesize lecithin. T-84 (Reference CCL-248 of the American Type Culture Collection): It is a tumor line with epithelial morphology, isolated from a pulmonary metastasis of a colorectal carcinoma of a patient. These cells present receptors for a large group of hormones and neurotransmitters, and they produce carcinoembryonic antigen (CEA) and keratin, among other cellular products.
as §1
(§4) Adherent cells were incubated for 24 hours to get cells attached to the surface of the flask. […]

[5] = tested on: T-84 (human colorectal adenocarcinoma line); conditions: T-84 cells, 72 hours induction, SRB; means±SEM of six independent determinations
Description: as §3, §1, §4

[6] = tested on: Jurkat (human tumor T lymphocytes line)
Experimental: as §2

[7] = tested on: normal human peripheral blood mononuclear cells (PBMCs); conditions: normal PBMCs from healthy volunteers, 72 hours induction, MTT; means±SEM of six independent determinations
Experimental: as §2

[8] = tested on: rats; conditions: OECD guideline 408, 90-days oral subchronic toxicity study; cited from earlier work

Q: What does the source list for `CCCSS(=O)(=O)CCC` [PTSO, propyl propane thiosulfonate]?
A: IC50 [1]: 50.8 µM; in vitro T.I (IC50 Normal Line/IC50 Tumor Line) ([2]; IC50 PBMCs / IC50 MCF-7 tumor line): 36.0; IC50 ([2]; MCF-7 cells, 72 hours induction, SRB, means±SEM of six independent determinations): 6.9 µM; IC50 [3]: 33.8 µM; IC50 [4]: 38.6 µM; IC50 [5]: 37.3 µM; in vitro T.I (IC50 Normal Line/IC50 Tumor Line) ([6]; IC50 PBMCs / IC50 Jurkat tumor line): 15.8; IC50 ([6]; Jurkat cells, 72 hours induction, MTT, means±SEM of six independent determinations): 15.7 µM; IC50 [7]: 248 µM; no-observed-adverse-effect level (NOAEL) [8]: 55 mg/kg/day
